Drawing on patent US9187458B2, “Cyanoquinoline derivatives” (Tianjin Hemay Bio-Tech Co., LTD., priority 2010, dated 2015), this text covers IC50 and inhibition for three compounds.

Usually IC50 stands for the concentration at which inhibition is half-maximal. A high value points to a need for much substance.

One experiment has as its system NCI-H358 cells. Put plainly: NCI-H358 Cell Growth Inhibition Test (MTT Assay). The format is cell-based. The note with it: Homo sapiens, 72 h incubation. Here is the method:
NCI-H358 Cell Growth Inhibition Test (MTT Assay)
Cell strains: NCI-H358 (human non-small cell lung cancer cell strains);
(§1) 1. A plate (10 cm) of cells in logarithmic growth phase normally cultured was collected;
(§2) 2. The culture solution was sucked out. The plate was washed with 5 ml of PBS 1-2 times;
(§3) 3. PBS was sucked out. 1.5 ml of 0.25% pancreatin was added to infiltrate the cells for 1 min;
4. The culture plate was placed in an incubator. Digestion was carried out for about 5 min at 37° C.;
5. 3 ml of complete culture solution was added to the culture plate to stop the digestion. Tthe cells were carefully scoured with micropipette (1 ml) to give a uniform cell suspension. The suspension was implanted into a 96-well cell culture plate by 10000 cells/100 […] per well. The culture plate was incubated overnight under 5% CO2 at 37° C. In day 2, 100 μA of culture solution comprising a compound was added in each well, and further incubated for 72 h under 5% CO2 at 37° C.
(§4) 6. The culture solution was sucked out;
7. 100 μA of serum-free culture solution containing 0.5 mg/ml MTT was added in each well, and incubated for 3 h;
(§5) 8. The culture solution was carefully sucked out;
9. 100 μA of DMSO was added in each well and vibrated to dissolve;
(§6) 10. OD values were determined at 490 nM.
(§7) 1. Calculation of Relative Inhibition Ratio The inhibition ratio of a compound on cell growth=(PC−n)/(PC−NC)×100%
(§8) IC50: Concentration of a compound where inhibition ratio was 50%. IC50 values were fitted with Origin7.5.

The next experiment relates to BxPc-3 cells. Put plainly: BxPc-3 Cell Growth Inhibition Test (MTT Assay). Type of experiment: cell-based. The note with it: Homo sapiens, 72 h incubation. On the procedure:
BxPc-3 Cell Growth Inhibition Test (MTT Assay) Cell strains: BxPC-3 (human pancreatic cancer cell strains); Culture medium: 90% RPMI-1640+10% FBS; 1. A plate (10 cm) of cells in logarithmic growth phase normally cultured was collected; 2. The culture solution was sucked out. […] The plate was washed with 5 ml of PBS 1-2 times; 3. PBS was sucked out. 1.5 ml of 0.25% pancreatin was added to infiltrate the cells for 1 min; 4. The pancreatin was sucked out. The culture plate was placed in an incubator. Digestion was carried out for about 5 min at 37° C.; 5. 4.5 ml of complete culture solution was added to the culture plate to stop the digestion. The cells were carefully scoured with micropipette (1 ml) to give a uniform cell suspension. The suspension was implanted into a 96-well cell culture plate by 5000 cells/100 μl per well. The culture plate was incubated overnight under 5% CO2 at 37° C. In day 2, 100 μl of culture solution comprising a compound was added in each well, and further incubated for 72 h under 5% CO2 at 37° C. 6. The culture solution was sucked out; 7. 100 μl of serum-free culture solution containing 0.5 mg/ml MTT was added in each well, and incubated for 3 h; 8. The culture solution was carefully sucked out; 9. 100 μl of DMSO was added in each well and vibrated to dissolve; 10. OD values were determined at […]. 1. Calculation of Relative Inhibition Ratio The inhibition ratio of a compound on cell growth=(PC−n)/(PC−NC)×100% IC50: Concentration of a compound where inhibition ratio was 50%. IC50 values were fitted with Origin7.5.

For the next experiment, the system named is BT-474 cells. Put plainly: BT-474 Cell Growth Inhibition Test (SRB Assay). The format is cell-based, human. Particulars: Homo sapiens, 70 h incubation. The essentials: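 Human breast tumour BT-474 cells (1×10^5/ml seeding, overnight) exposed to compound 70 h at 37 °C, 5% CO2; TCA-fixed, SRB-stained, dye dissolved in 10 mM Tris and OD read at 570 nm. Inhibition ratio = (PC−n)/(PC−NC)×100%; IC50 is the concentration giving 50% inhibition, from fitted curves.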

In a further experiment the test system is SK-OV-3 cells. Put plainly: SK-OV-3 Cell Growth Inhibition Test (MTT Assay). The format is cell-based. Particulars: Homo sapiens, 72 h incubation. On the procedure: SK-OV-3 Cell Growth Inhibition Test (MTT Assay)
Cell strains: SK-OV-3 (human ovarian cancer cell strains);
Culture medium: 90% McCoy's 5A+10% FBS;
as §1, §2, §3
4. The pancreatin was sucked out. The culture plate was placed in an incubator. Digestion was carried out for about 5 min at 37° C.;
5. 4.5 ml of complete culture solution was added to the culture plate to stop the digestion.T the cells were carefully scoured with micropipette (1 ml) to give a uniform cell suspension. The suspension was implanted into a 96-well cell culture disc by 4000 cells/100 μl per well. The culture plate was incubated overnight under 5% CO2 at 37° C. In day 2, 100 μl of culture solution comprising a compound was added in each well, and further incubated for 72 h under 5% CO2 at 37° C.
as §4
7. 100 μl of serum-free culture solution containing 0.5 mg/ml MTT was added in each well, and incubated for 3 h;
as §5
9. 100 μl of DMSO was added in each well and vibrated to dissolve;
as §6, §7, §8

A further experiment has as its system MDA-MB-453 cells. The experiment can be described thus: MDA-MB-453 Cell Growth Inhibition Test (SRB Assay). The format is cell-based. Particulars: Homo sapiens, 72 h incubation. Here is the method:
MDA-MB-453 Cell Growth Inhibition Test (SRB Assay)
Cell strains: MDA-MB-453 (human breast cancer cell strains);
SRB: 0.4% (w/v) working solution was formulated with 1% glacial acetic acid, reserved at 4° C.; antitumor compounds; DMSO
Culture medium: 90% L15+10% FBS;
as §1
2. The culture solution was sucked out. The plate was washed with 5 mL of PBS 1-2 times;
3. 1.5 mL of 0.25% pancreatin was added to the plate to infiltrate the cells;
4. The pancreatin was sucked out. The culture plate was placed in an incubator. Digestion was carried out for about 3 min at 37° C.;
5. 4 mL of complete culture solution was added to the culture plate to stop the digestion. The cells were carefully scoured with micropipette (1 ml) to give a uniform single cell suspension. The suspension was implanted into a 96-well cell culture plate by 7000 cells/100 μl per well. The culture plate was incubated overnight under 5% CO2 at 37° C. In day 2, 100 μl of culture solution comprising a compound was added in each well, and further incubated for 72 h under 5% CO2 at 37° C.;
6. The culture solution was sucked out. 100 uL of TCA fixed cells which were diluted to 10% were added to each well. The plate was kept in a refrigerator for 1 h at 4° C.
7. TCA stationary liquid was sucked out. […]
13. OD values were determined at […]. […]

Regarding `C#Cc1cccc(Nc2c(C#N)cnc3cc(O[C@H]4CCOC4)c(NC(=O)/C=C/CN(CCO)CCO)cc23)c1` [Example 188, (S,E)-N-(3-CYANO-4-(3-ETHYNYLPHENYLAMINO)-7-(TETRAHYDROFURAN-3-YL-OXY)QUINOLIN-6-YL)-4-(DIETHANOLAMINO)-BUT-2-ENAMIDE], the concentration for half-maximal inhibition (IC50) in the experiment with NCI-H358 cells was found to be 110 nM.
In the experiment on BxPc-3 cells, `CN1CCC(Oc2cc3ncc(C#N)c(Nc4ccc(Oc5ccccc5)nc4)c3cc2NC(=O)/C=C2/CCNC2)CC1` [Example 131, (E/Z)-N-(3-CYANO-7-(1-METHYLPIPERIDIN-4-YL-OXY)-4-(6-(PHENOXYPYRIDIN-3-YL-AMINO)QUINOLIN-6-YL)-2-(PYRROLIDIN-3-YLIDENE)ACETAMIDE] came in with an IC50 of 306 nM. This lies in the sub-micromolar range.
With `C#Cc1cccc(Nc2c(C#N)cnc3cc(O[C@H]4CCOC4)c(NC(=O)/C=C/CN(C)CCOC)cc23)c1` [Example 189, (S,E)-N-(3-CYANO-4-(3-ETHYNYLPHENYLAMINO)-7-(TETRAHYDROFURAN-3-YL-OXY)QUINOLIN-6-YL)-4-(N-METHYLMETHOXYETHYLAMINO)-BUT-2-ENAMIDE], the IC50 with BT-474 cells was determined as 108 nM; in the experiment on SK-OV-3 cells, 312 nM; in the experiment with MDA-MB-453 cells, 523 nM. In addition, in the experiment on BT-474 cells (BT-474, 70 h, compound 1 μM, read-out: Growth Inhibition Ratio (%)), the inhibition at 1 µM was 85%.
